Source: patent US12257247B2 (Monte Rosa Therapeutics AG, priority 2023, dated 2025)
Read-outs that look alike come from different tables or passages of the source.

Target: T1, VAV1 (Homo sapiens, UniProt P15498+Q96SW2)
T1 construct: A heterozygous VAV1 C-terminal HiBiT knock-in pool was generated at Monte Rosa Therapeutics from a clonal Jurkat cell; endogenous in cells; host or cells: Jurkat clone stably expressing LgBiT, homozygous GSPT1-G575N; heterozygous VAV1-HiBiT knock-in pool
Assay: VAV1 degradation activity, VAV1-HiBiT knock-in Jurkat luminescence assay (Example A, Table 1)
Type: cell-based
Conditions: VAV1-HiBiT knock-in Jurkat cells, luminescence read at 6 and 24 hours; for Dmax: Jurkat
Outline: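 Jurkat cells carrying VAV1-HiBiT knock-in, plated in RPMI/10% FBS with Endurazine live-cell substrate and pre-incubated ~16 h at 37° C. Compound dosed from 10 μM stock; luminescence read 6 and 24 h later. Response normalised to plate negative/positive controls, EC50 from 3-parameter logistic fit (hillslope 1).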

[1] = read-out: VAV1 DC50 (nM), class

Row | Structure (SMILES) | Dmax (read-out: VAV1 Dmax %) [%] | Dmax (read-out: VAV1 Dmax %, class) [%] | DC50 (read-out: VAV1 DC50) [nM] | DC50 [1] [nM]
1 | Cc1cccc(=O)n1-c1ccc(-c2cccc(C3CCC(=O)NC3=O)c2Cl)cn1 (stereo not drawn) [Compound 353, 3-(2-chloro-3-(6-methyl-2-oxo-2H-[1,2′-bipyridin]-5′-yl)phenyl)piperidine-2,6-dione] | 90.7 | > 90 | 62.1 | ≤ 100
2 | O=C1CCC(c2cccc(-c3ccc(N4C(=O)OCC45CC5)nc3)c2Cl)C(=O)N1 (stereo not drawn) [Compound 356, 3-(2-chloro-3-(6-(5-oxo-6-oxa-4-azaspiro[2.4]heptan-4-yl)pyridin-3-yl)phenyl)piperidine-2,6-dione] | 86 | 60 to 90 | 71.4 | ≤ 100
3 | O=C1CCC(c2cccc(-c3ccc(N4C(=O)OCC45CCC5)nc3)c2Cl)C(=O)N1 (stereo not drawn) [Compound 357, 3-(2-chloro-3-(6-(6-oxo-7-oxa-5-azaspiro[3.4]octan-5-yl)pyridin-3-yl)phenyl)piperidine-2,6-dione] | 90.8 | > 90 | 35.8 | ≤ 100
4 | O=C1CCC(c2cc(F)cc(-c3ccc(-n4ccccc4=O)cc3)c2Cl)C(=O)N1 (stereo not drawn) [Compound 361, 3-(2-chloro-5-fluoro-4′-(2-oxopyridin-1(2H)-yl)-[1,1′-biphenyl]-3-yl)piperidine-2,6-dione] | 84.4 | 60 to 90 | 76.4 | ≤ 100
5 | O=C1CCC(c2cccc(-c3cnc(N4C(=O)CCC45CC5)c(F)c3)c2Cl)C(=O)N1 (stereo not drawn) [Compound 364, 3-(2-chloro-3-(5-fluoro-6-(5-oxo-4-azaspiro[2.4]heptan-4-yl)pyridin-3-yl)phenyl)piperidine-2,6-dione] | 71.7 | 60 to 90 | 234 | 100 to 1000
6 | O=C1CCC(c2cccc(-c3cnc(N4C(=O)CCC45CCC5)c(F)c3)c2Cl)C(=O)N1 (stereo not drawn) [Compound 365, 3-(2-chloro-3-(5-fluoro-6-(6-oxo-5-azaspiro[3.4]octan-5-yl)pyridin-3-yl)phenyl)piperidine-2,6-dione] | 88 | 60 to 90 | 55 | ≤ 100
7 | O=C1CCC(c2cccc(-c3cnc(N4CCCCC4=O)c(F)c3)c2Cl)C(=O)N1 (stereo not drawn) [Compound 369, 3-(2-chloro-3-(5-fluoro-6-(2-oxopiperidin-1-yl)pyridin-3-yl)phenyl)piperidine-2,6-dione] | 69.5 | 60 to 90 | 331 | 100 to 1000
8 | O=C1CCC(c2cccc(-c3cnc(Cc4ncco4)c(F)c3)c2Cl)C(=O)N1 (stereo not drawn) [Compound 370, 3-(2-chloro-3-(5-fluoro-6-(oxazol-2-ylmethyl)pyridin-3-yl)phenyl)piperidine-2,6-dione] | 58.1 | < 60 | 1570 | > 1000
9 | CN1CC2(CCC(=O)N2c2ccc(-c3cccc(C4CCC(=O)NC4=O)c3Cl)cc2)C1 (stereo not drawn) [Compound 371, 3-(2-chloro-4′-(2-methyl-6-oxo-2,5-diazaspiro[3.4]octan-5-yl)-[1,1′-biphenyl]-3-yl)piperidine-2,6-dione] | 37.8 | < 60 | ≥ 10000 | > 1000
10 | O=C1CCC(c2cccc(-c3ccc(Cc4cccnc4)cc3)c2Cl)C(=O)N1 (stereo not drawn) [Compound 374, 3-(2-chloro-4′-(pyridin-3-ylmethyl)-[1,1′-biphenyl]-3-yl)piperidine-2,6-dione] | 97.4 | > 90 | 10.2 | ≤ 100
11 | COC(=O)c1ccc(Cc2ccc(-c3cccc(C4CCC(=O)NC4=O)c3Cl)cc2)n1C (stereo not drawn) [Compound 375, methyl 5-((2′-chloro-3′-(2,6-dioxopiperidin-3-yl)-[1,1′-biphenyl]-4-yl)methyl)-1-methyl-1H-pyrrole-2-carboxylate] | 98 | > 90 | 14.2 | ≤ 100
12 | O=C1CCC(c2cccc(-c3ccc(Cc4cncnc4)cc3)c2Cl)C(=O)N1 (stereo not drawn) [Compound 376, 3-(2-chloro-4′-(pyrimidin-5-ylmethyl)-[1,1′-biphenyl]-3-yl)piperidine-2,6-dione] | 95.8 | > 90 | 15.2 | ≤ 100
13 | CN1CCC(C)(C)N(c2ccc(-c3cccc(C4CCC(=O)NC4=O)c3Cl)cc2)C1=O (stereo not drawn) [Compound 378, 3-(2-chloro-4′-(3,6,6-trimethyl-2-oxotetrahydropyrimidin-1(2H)-yl)-[1,1′-biphenyl]-3-yl)piperidine-2,6-dione] | 98.3 | > 90 | 1.56 | ≤ 100
14 | O=C1CCC(c2cccc(-c3ccc4c(c3)CCCO4)c2Cl)C(=O)N1 (stereo not drawn) [Compound 381, 3-[2-chloro-3-(3,4-dihydro-2H-1-benzopyran-6-yl)phenyl]piperidine-2,6-dione] | 96.5 | > 90 | 35.9 | ≤ 100

The next lines start with the values.

Row | Dmax (read-out: VAV1 Dmax %) [%] | Dmax (read-out: VAV1 Dmax %, class) [%] | DC50 (read-out: VAV1 DC50) [nM] | DC50 [1] [nM] | Structure (SMILES)
15 | 82.3 | 60 to 90 | 65.3 | ≤ 100 | CN1CC(=O)N(c2ccc(-c3cccc(C4CCC(=O)NC4=O)c3Cl)cc2)CC12CC2 (stereo not drawn) [Compound 352, 3-(2-chloro-4′-(4-methyl-6-oxo-4,7-diazaspiro[2.5]octan-7-yl)-[1,1′-biphenyl]-3-yl)piperidine-2,6-dione]
16 | 97.4 | > 90 | 13.3 | ≤ 100 | O=C1CCC(c2cccc(-c3ccc(Oc4ccccn4)cc3)c2Cl)C(=O)N1 (stereo not drawn) [Compound 354, 3-(2-chloro-4′-(pyridin-2-yloxy)-[1,1′-biphenyl]-3-yl)piperidine-2,6-dione]
17 | 91.8 | > 90 | 15.9 | ≤ 100 | O=C1CCC(c2cccc(-c3ccc(N4C(=O)CCC45COC5)cc3)c2Cl)C(=O)N1 (stereo not drawn) [Compound 355, 3-(2-chloro-4′-(6-oxo-2-oxa-5-azaspiro[3.4]octan-5-yl)-[1,1′-biphenyl]-3-yl)piperidine-2,6-dione]
18 | 44.3 | < 60 | ≥ 10000 | > 1000 | O=C1CCC(c2cccc(-c3ccc(N4CCC5(COC5)C4=O)cc3)c2Cl)C(=O)N1 (stereo not drawn) [Compound 358, 3-(2-chloro-4′-(5-oxo-2-oxa-6-azaspiro[3.4]octan-6-yl)-[1,1′-biphenyl]-3-yl)piperidine-2,6-dione]
19 | 95 | > 90 | 13.3 | ≤ 100 | O=C1CCC(c2cccc(-c3ccc(N4C(=O)OCCC45CCC5)nc3)c2Cl)C(=O)N1 (stereo not drawn) [Compound 359, 3-(2-chloro-3-(6-(6-oxo-7-oxa-5-azaspiro-[3.5]nonan-5-yl)pyridin-3-yl)phenyl)piperidine-2,6-dione]
20 | 96.5 | > 90 | 6.85 | ≤ 100 | O=C1CCC(c2cccc(-c3ccc(Oc4ncccn4)cc3)c2Cl)C(=O)N1 (stereo not drawn) [Compound 360, 3-(2-chloro-4′-(pyrimidin-2-yloxy)-[1,1′-biphenyl]-3-yl)piperidine-2,6-dione]
21 | 87.5 | 60 to 90 | 69.6 | ≤ 100 | O=C1CCC(c2cccc(-c3cnc(N4C(=O)CCCC45CC5)c(F)c3)c2Cl)C(=O)N1 (stereo not drawn) [Compound 362, 3-(2-chloro-3-(5-fluoro-6-(5-oxo-4-azaspiro[2.5]octan-4-yl)pyridin-3-yl)phenyl)piperidine-2,6-dione]
22 | 97.1 | > 90 | 4.86 | ≤ 100 | Cn1ccc(Cn2c(=O)n(C)c3cc(-c4cccc(C5CCC(=O)NC5=O)c4Cl)ccc32)n1 (stereo not drawn) [Compound 363, 3-(2-chloro-3-(3-methyl-1-((1-methyl-1H-pyrazol-3-yl)methyl)-2-oxo-2,3-dihydro-1H-benzo[d]imidazol-5-yl)phenyl)piperidine-2,6-dione]
23 | 97.8 | > 90 | 1.87 | ≤ 100 | CN1CCC2(CC2)N(c2ccc(-c3cccc(C4CCC(=O)NC4=O)c3Cl)cc2)C1=O (stereo not drawn) [Compound 366, 3-(2-chloro-4′-(6-methyl-5-oxo-4,6-diazaspiro[2.5]octan-4-yl)-[1,1′-biphenyl]-3-yl)piperidine-2,6-dione]
24 | 94.4 | > 90 | 10 | ≤ 100 | O=C1CCC(c2cccc(-c3ccc(N4CCCNC4=O)cc3)c2Cl)C(=O)N1 (stereo not drawn) [Compound 372, 3-(2-chloro-4′-(2-oxotetrahydropyrimidin-1(2H)-yl)-[1,1′-biphenyl]-3-yl)piperidine-2,6-dione]
25 | 97.2 | > 90 | 25.6 | ≤ 100 | O=C1CCC(c2cccc(-c3ccc(Cc4ccco4)cc3)c2Cl)C(=O)N1 (stereo not drawn) [Compound 373, 3-(2-chloro-4′-(furan-2-ylmethyl)-[1,1′-biphenyl]-3-yl)piperidine-2,6-dione]
26 | 98.8 | > 90 | 17.2 | ≤ 100 | O=C1CCC(c2cccc(-c3ccc(Cc4cccs4)cc3)c2Cl)C(=O)N1 (stereo not drawn) [Compound 377, 3-(2-chloro-4′-(thiophen-2-ylmethyl)-[1,1′-biphenyl]-3-yl)piperidine-2,6-dione]
27 | 76 | 60 to 90 | 167 | 100 to 1000 | CN1CCCN(c2ncc(-c3cccc(C4CCC(=O)NC4=O)c3Cl)cc2F)C1=O (stereo not drawn) [Compound 382, 3-(2-chloro-3-(5-fluoro-6-(3-methyl-2-oxotetrahydropyrimidin-1(2H)-yl)pyridin-3-yl)phenyl)piperidine-2,6-dione]
